Assay results taken from patent US20230203098A1, “HUMAN TRANSFERRIN RECEPTOR BINDING PEPTIDE” (priority 2020, published 2023).
Read-outs that look alike come from different tables or passages of the source. Where a SMILES comes first, the peptide text is derived from it. Bridges are numbered along the chain shown (N, C = ends). [ ]: non-standard residue; d: D form. Ala(imidazo(1,2-a)pyr3yl) = N[C@@H](Cc1cnc2ccccn12)C(=O)O; Phe(3-COOH) = N[C@@H](Cc1cccc(C(=O)O)c1)C(=O)O; NMePhe(3-Cl) = CN[C@@H](Cc1cccc(Cl)c1)C(=O)O; NMeW = CN[C@@H](Cc1c[nH]c2ccccc12)C(=O)O; NMeY = CN[C@@H](Cc1ccc(O)cc1)C(=O)O; 4Pal = N[C@@H](Cc1ccncc1)C(=O)O

Target: transferrin receptor (hTfR) (Homo sapiens, UniProt P02786)
Sequence (P02786 whole entry): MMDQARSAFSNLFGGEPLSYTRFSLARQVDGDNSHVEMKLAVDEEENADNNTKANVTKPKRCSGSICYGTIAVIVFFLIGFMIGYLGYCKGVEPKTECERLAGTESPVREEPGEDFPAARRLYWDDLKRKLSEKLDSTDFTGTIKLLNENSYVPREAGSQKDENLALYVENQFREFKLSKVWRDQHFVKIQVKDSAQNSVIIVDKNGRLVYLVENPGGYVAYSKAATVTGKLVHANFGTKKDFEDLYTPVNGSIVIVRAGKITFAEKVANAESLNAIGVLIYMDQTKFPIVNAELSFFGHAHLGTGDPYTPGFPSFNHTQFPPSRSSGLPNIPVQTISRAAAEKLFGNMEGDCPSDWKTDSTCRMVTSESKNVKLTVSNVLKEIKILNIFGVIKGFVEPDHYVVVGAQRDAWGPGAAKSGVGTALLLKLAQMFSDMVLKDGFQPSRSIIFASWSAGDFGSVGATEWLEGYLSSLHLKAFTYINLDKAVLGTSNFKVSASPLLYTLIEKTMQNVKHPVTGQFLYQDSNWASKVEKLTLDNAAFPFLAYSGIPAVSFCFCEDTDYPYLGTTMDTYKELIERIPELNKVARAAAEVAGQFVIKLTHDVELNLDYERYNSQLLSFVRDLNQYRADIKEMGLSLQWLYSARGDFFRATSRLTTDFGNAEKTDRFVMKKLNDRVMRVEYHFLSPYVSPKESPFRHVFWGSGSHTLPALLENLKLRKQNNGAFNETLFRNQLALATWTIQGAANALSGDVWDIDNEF
Assay: Intermolecular interaction evaluation test between transferrin receptor (hTfR) and peptide by surface plasmon resonance (SPR)
Type: binding
Method in brief: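 Receptor was Ni-captured and EDC/NHS-fixed on an NTA chip; running buffer HEPES pH 8.0 with NaCl, Tween 20, BSA and 1.0% DMSO.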

[1] = surface plasmon resonance, peptide vs hTfR, read-out: KD value for hTfR by SPR (class symbol)
[2] = SPR, hTfR, class symbols A-D, read-out: KD

`CC[C@H](C)[C@@H]1NC(=O)[C@H](Cc2ccc(O)cc2)NC(=O)[C@H](Cc2ccc(O)cc2)NC(=O)[C@H](CC(N)=O)NC(=O)[C@H](Cc2c[nH]c3ccccc23)NC(=O)[C@H](C(C)C)NC(=O)[C@H](Cc2ccccc2)N(C)C(=O)[C@H](C(C)C)NC(=O)[C@H](C)NC(=O)CSC[C@@H](C(=O)NCC(=O)NCC(=O)NCC(=O)NCC(=O)N[C@@H](CO)C(=O)N[C@@H](CO)C(=O)N[C@@H](CSCC(=O)NC)C(N)=O)NC(=O)[C@H](Cc2ccc(O)cc2)N(C)C(=O)[C@H](Cc2ccc(O)cc2)NC(=O)[C@H](CCCNC(=N)N)NC(=O)[C@H](CCCNC(=N)N)NC(=O)[C@H]([C@@H](C)CC)NC1=O` [compound 443] showed a Kd [1] of 1 to 100 nM.

Work on `CC[C@H](C)[C@@H]1NC(=O)[C@H](Cc2ccc(O)cc2)NC(=O)[C@H](Cc2ccc(O)cc2)NC(=O)[C@H](CC(N)=O)NC(=O)[C@H](Cc2c[nH]c3ccccc23)NC(=O)[C@H](C(C)C)NC(=O)[C@H](Cc2ccccc2)N(C)C(=O)[C@H](C(C)C)NC(=O)[C@H](C)NC(=O)CSC[C@@H](C(=O)NCC(=O)N[C@H](CCC(=O)O)C(=O)N[C@H](CCC(=O)O)C(=O)N[C@H](CCC(=O)O)C(=O)NCC(=O)N[C@H](CCCCN)C(N)=O)NC(=O)[C@H](Cc2ccc(O)cc2)N(C)C(=O)[C@H](Cc2ccc(O)cc2)NC(=O)[C@H](CCCNC(=N)N)NC(=O)[C@H](CCCNC(=N)N)NC(=O)[C@H]([C@@H](C)CC)NC1=O` [compound 444] yielded a Kd [1] of 1 to 100 nM.

In the case of `CC[C@H](C)[C@@H]1NC(=O)[C@H](Cc2ccc(O)cc2)NC(=O)[C@H](Cc2ccc(O)cc2)NC(=O)[C@H](CC(N)=O)NC(=O)[C@H](Cc2c[nH]c3ccccc23)NC(=O)[C@H](C(C)C)NC(=O)[C@H](Cc2ccccc2)N(C)C(=O)[C@H](C(C)C)NC(=O)[C@H](C)NC(=O)CSC[C@@H](C(=O)NCCOCCOCCOCCOCCC(=O)N[C@H](CCCCNC(=O)c2ccc(-c3c4ccc(=O)cc-4oc4cc(O)ccc34)c(C(=O)O)c2)C(N)=O)NC(=O)[C@H](Cc2ccc(O)cc2)N(C)C(=O)[C@H](Cc2ccc(O)cc2)NC(=O)[C@H](CCCNC(=N)N)NC(=O)[C@H](CCCNC(=N)N)NC(=O)[C@H]([C@@H](C)CC)NC1=O` [compound 446], the Kd [1] is reported as under 1 nM.

With `CC[C@H](C)[C@@H]1NC(=O)[C@H](Cc2ccc(OC)cc2)NC(=O)[C@H](Cc2ccc(O)cc2)NC(=O)[C@H](CC(N)=O)NC(=O)[C@H](Cc2c[nH]c3ccccc23)N(C)C(=O)[C@H](C(C)C)NC(=O)[C@H](Cc2ccncc2)N(C)C(=O)[C@H](C(C)C)NC(=O)[C@H](C)NC(=O)CSC[C@@H](C(N)=O)NC(=O)[C@H](Cc2ccc(O)cc2)N(C)C(=O)[C@H](Cc2ccccc2)NC(=O)[C@@H](CCCNC(=N)N)NC(=O)[C@H](CCCNC(=N)N)NC(=O)[C@H]([C@@H](C)CC)NC1=O` [compound 451] the Kd [2] was 100 to 1000 nM.

`CC[C@H](C)[C@@H]1NC(=O)[C@H](Cc2ccc(OC)cc2)NC(=O)[C@H](Cc2ccc(O)cc2)NC(=O)[C@H](CC(N)=O)NC(=O)[C@H](Cc2c[nH]c3ccccc23)N(C)C(=O)[C@H](C(C)C)NC(=O)[C@H](Cc2cccc(C(=O)O)c2)N(C)C(=O)[C@H](C(C)C)NC(=O)[C@H](C)NC(=O)CSC[C@@H](C(N)=O)NC(=O)[C@H](Cc2ccc(O)cc2)N(C)C(=O)[C@H](Cc2ccccc2)NC(=O)[C@@H](CCCNC(=N)N)NC(=O)[C@H](CCCNC(=N)N)NC(=O)[C@H]([C@@H](C)CC)NC1=O` [compound 452] showed a Kd [2] of 100 to 1000 nM.

With `CC[C@H](C)[C@@H]1NC(=O)[C@H](Cc2ccncc2)NC(=O)[C@H](Cc2ccc(O)cc2)NC(=O)[C@H](CC(N)=O)NC(=O)[C@H](Cc2c[nH]c3ccccc23)N(C)C(=O)[C@H](C(C)C)NC(=O)[C@H](Cc2cccc(Cl)c2)N(C)C(=O)[C@H](C(C)C)NC(=O)[C@H](C)NC(=O)CSC[C@@H](C(N)=O)NC(=O)[C@H](Cc2ccc(O)cc2)N(C)C(=O)[C@H](Cc2ccccc2)NC(=O)[C@@H](CCCNC(=N)N)NC(=O)[C@H](CCCNC(=N)N)NC(=O)[C@H]([C@@H](C)CC)NC1=O` [compound 455] ({CH2CO}-AV[NMePhe(3-Cl)]V[NMeW]NY[4Pal]IIR[dR]F[NMeY]C-NH2; thioether N-15) the Kd [2] was 1 to 100 nM.

In the case of `CC[C@H](C)[C@@H]1NC(=O)[C@H](Cc2cnc3ccccn23)NC(=O)[C@H](Cc2ccc(O)cc2)NC(=O)[C@H](CC(N)=O)NC(=O)[C@H](Cc2c[nH]c3ccccc23)N(C)C(=O)[C@H](C(C)C)NC(=O)[C@H](Cc2cccc(Cl)c2)N(C)C(=O)[C@H](C(C)C)NC(=O)[C@H](C)NC(=O)CSC[C@@H](C(N)=O)NC(=O)[C@H](Cc2ccc(O)cc2)N(C)C(=O)[C@H](Cc2ccccc2)NC(=O)[C@@H](CCCNC(=N)N)NC(=O)[C@H](CCCNC(=N)N)NC(=O)[C@H]([C@@H](C)CC)NC1=O` [compound 456] ({CH2CO}-AV[NMePhe(3-Cl)]V[NMeW]NY[Ala(imidazo(1,2-a)pyr3yl)]IIR[dR]F[NMeY]C-NH2; thioether N-15), the Kd [2] is reported as 1 to 100 nM.

In the case of `CC[C@H](C)[C@@H]1NC(=O)[C@H](Cc2cccc(C(=O)O)c2)NC(=O)[C@H](Cc2ccc(O)cc2)NC(=O)[C@H](CC(N)=O)NC(=O)[C@H](Cc2c[nH]c3ccccc23)N(C)C(=O)[C@H](C(C)C)NC(=O)[C@H](Cc2cccc(Cl)c2)N(C)C(=O)[C@H](C(C)C)NC(=O)[C@H](C)NC(=O)CSC[C@@H](C(N)=O)NC(=O)[C@H](Cc2ccc(O)cc2)N(C)C(=O)[C@H](Cc2ccccc2)NC(=O)[C@@H](CCCNC(=N)N)NC(=O)[C@H](CCCNC(=N)N)NC(=O)[C@H]([C@@H](C)CC)NC1=O` [compound 458] ({CH2CO}-AV[NMePhe(3-Cl)]V[NMeW]NY[Phe(3-COOH)]IIR[dR]F[NMeY]C-NH2; thioether N-15), the Kd [2] is reported as 1 to 100 nM.

In the case of `CC[C@H](C)[C@@H]1NC(=O)[C@H](Cc2ccc(OC)cc2)NC(=O)[C@H](Cc2ccc(O)cc2)NC(=O)[C@H](CC(N)=O)NC(=O)[C@H](Cc2c[nH]c3ccccc23)N(C)C(=O)[C@H](C(C)C)NC(=O)[C@H](Cc2cccc(Cl)c2)N(C)C(=O)[C@H](C(C)C)NC(=O)[C@H](C)NC(=O)CSC[C@@H](C(N)=O)NC(=O)[C@H](Cc2ccc(O)cc2)N(C)C(=O)[C@H](Cc2cccnc2)NC(=O)[C@@H](CCCNC(=N)N)NC(=O)[C@H](CCCNC(=N)N)NC(=O)[C@H]([C@@H](C)CC)NC1=O` [compound 460], the Kd [2] is reported as 1 to 100 nM.

`CC[C@H](C)[C@@H]1NC(=O)[C@H](Cc2ccc(OC)cc2)NC(=O)[C@H](Cc2ccc(O)cc2)NC(=O)[C@H](CC(N)=O)NC(=O)[C@H](Cc2c[nH]c3ccccc23)N(C)C(=O)[C@H](C(C)C)NC(=O)[C@H](Cc2cccc(Cl)c2)N(C)C(=O)[C@H](C(C)C)NC(=O)[C@H](C)NC(=O)CSC[C@@H](C(N)=O)NC(=O)[C@H](Cc2ccc(O)cc2)N(C)C(=O)[C@H](Cc2cccc(C(=O)O)c2)NC(=O)[C@@H](CCCNC(=N)N)NC(=O)[C@H](CCCNC(=N)N)NC(=O)[C@H]([C@@H](C)CC)NC1=O` [compound 461] gave a Kd [2] of 1 to 100 nM.

Compound `CC[C@H](C)[C@@H]1NC(=O)[C@H](Cc2ccc(OC)cc2)NC(=O)[C@H](Cc2ccc(O)cc2)NC(=O)[C@H](CC(N)=O)NC(=O)[C@H](Cc2c[nH]c3ccc(Cl)cc23)NC(=O)[C@H](C(C)C)NC(=O)[C@H](Cc2cccc(Cl)c2)N(C)C(=O)[C@H](C(C)C)NC(=O)[C@H](C)NC(=O)CSC[C@@H](C(N)=O)NC(=O)[C@H](Cc2ccc(O)cc2)N(C)C(=O)[C@H](Cc2ccccc2)NC(=O)[C@@H](CCCNC(=N)N)NC(=O)[C@H](CCCNC(=N)N)NC(=O)[C@H]([C@@H](C)CC)NC1=O` [compound 464] has a Kd [2] of over 1000 nM.
